# Patent US20170183637A1, “SPLIT RECOMBINANT LUCIFERASE, AND ANALYSIS METHOD USING THEREOF” (OLYMPUS CORPORATION, priority 2014, published 2017)
# B1: OKI359: C-terminal fragment, residues 359 to 562 of OKI-derived luciferase; names the permutated luciferase made with OKI-N (protein)
# chain: KPGACGKVAPFFSAKIVDLDTSKTLGVNQRGELCLKGPMIMKGYVNNPEATNALIDKDGWLHSGDLAYYDKDGHFFIVDRLKSLIKYQGYQVPPAELESILLQHPFIFDAGVAGIPDADAGELPAAVVVLEEGKTMTEQEVMDYVAGQVTASKRLRGGVKFVDEVPKGLTGKIDSRKIREMLTMGKKSKL
# Columns and labels:
# [1] = test system: 5HT2A receptor-expressing HEK293 cells; assay: High-speed luminescence imaging of changes in calcium ion concentrations upon 5HT stimulation (Experiment 11); type: cell-based, human; conditions: 5HT 10 μM; cpSfRE55-CaM in 5HT2A receptor-expressing HEK293 cells; images every 500 milliseconds; FIG. 15
# Protocol: The cells cultured in Procedure 1 were seeded onto 35 mm-diameter glass bottom dishes at a density of 2×10^5 cells/dish and cultured overnight in a 5% CO2 incubator. The human 5HT2A receptor expression plasmid pcDNA/5HT2AR and luminescent calcium indicator expression plasmid were transferred into the cells by electroporation using NEPA21 and the cells were cultured overnight in a 5% CO2 incubator.
# 2 mM luciferin (Promega) was added to the culture medium of the culture obtained in Procedure 2 and the culture was allowed to stand for 1 h. The culture dish was loaded onto a luminescence microscope (LV-200, Olympus) and time-lapse image capturing was performed to acquire luminescence images at an interval of 500 milliseconds. Luminescence observation conditions were as follows: magnification of objective lens:=40×, exposure time=200 milliseconds, and binning=2×2. Using an EM-CCD camera (iXon, Andor), luminescence images were taken and transferred to a personal computer. […]
# Regions of interest (ROIs) were designated for each luminescence image captured in Procedure 3 and for each luminescence image captured in Procedure 4. […] The luminescence images were analyzed using MetaMorph software (Universal imaging). […]
# HEK293 cells [2] = assay: Luminescence measurement of changes in intracellular calcium level in HEK293 cells upon ATP stimulation (Experiment 9); type: cell-based; conditions: ATP 200 μM, luciferin 2 mM, luminometer, FIG. 13
# Protocol: HEK293 cells (1×10^6 cells) were collected by centrifugation and luminescent calcium indicator expression vectors were transferred into the cells by electroporation using NEPA21. The transfected HEK293 cells were seeded into a 24-well multiplate at a concentration of 1×10^5 cells/well and cultured overnight in a 5% CO2 incubator.
# After rinsing the cells with CO2-independent culture medium twice, 200 μL of CO2-independent culture medium containing D-luciferin (final conc.=2 mM) was added and the plate was allowed to stand for 15 min.
# The plate was placed in a luminometer (Luminescencer-JNR II, ATTO), and luminescence intensity for pre- and post-ATP (200 μM) stimulation was measured over time.
# Luminescent calcium indicators were transferred into HEK293 cells and the cells were cultured overnight. The cells were rinsed with CO2-independent culture medium, luciferin was added to the CO2-independent culture medium to a final luciferin concentration of 2 mM, and the culture was allowed to stand for 15 min, followed by measurement of luminescence intensity using a luminometer.
# HEK293 cells [3] = assay: Luminescence-based calcium imaging in HEK293 cells upon ATP stimulation (Experiment 10); type: cell-based; conditions: FIG. 14
# Protocol: HEK293 cells were acquired from ATCC and cultured in a 5% CO2 incubator in Earle's MEM culture medium (GIBCO) supplemented with 10% Fetal Bovine Serum and 1× Nonessential amino acids.
# The cultured HEK293 cells were seeded onto 35 mm-diameter glass bottom dishes at a density of 2×10^5 cells/dish and cultured overnight in a 5% CO2 incubator. Luminescent calcium indicator expression plasmids were transferred into the HEK293 cells by electroporation using NEPA21 and cultured overnight in a 5% CO2 incubator.
# 2 mM luciferin (Wako Pure Chemical industries, Ltd.) was added to the culture medium and the culture was allowed to stand for 1 h. The culture dish was then loaded onto a luminescence microscope (LV-200, Olympus) and time-lapse image capturing was performed to acquire luminescence images at an interval of 10 sec. Luminescence observation conditions were as follows: magnification of objective lens=40×, exposure time=5 sec, and binning=1×1. An EM-CCD camera (iXon, Andor) was used as a CCD camera, and luminescence images were transferred to a personal computer configured as an image analyzer.
# Changes in luminescence intensity of luminescent calcium indicators in response to changes in intracellular calcium ion concentration upon addition of ATP in culture medium were imaged. […] The luminescence images were transferred to the PC every 10 sec. […]
# E. coli (JM109 (DE3)) = assay: Luminescence activity of permutated and heterologous permutated firefly luciferase expressed in E. coli (Experiments 1 and 2); type: cell-based; conditions: Bright-Glo, 5 min room temperature, counts per 10 sec, FIG. 3
# Protocol: The pRSET vector containing the permutated firefly luciferase gene was transformed into JM109(DE3) strain of E. coli and cultured overnight at 37° C. To 50 μL of culture was added 50 μL of Bright-Glo (Promega) and the culture was allowed to stand for 5 min at room temperature. Luminescence level for 10 sec was then measured using a luminometer (Luminescencer-JNR II, ATTO).
# The prepared expression vector was transformed into E. coli (JM109 (DE3)) and cultured overnight in LB medium. To 50 μL of culture was added an equal volume of Bright-Glo and the culture was allowed to stand for 5 min at room temperature. Luminescence level of the reaction solution was reported as counts per 10 sec measured with the luminometer. As a control, permutated luciferase (GL4) derived from the North American firefly (Pholinus pyralis) luciferase was used. In FIG. 3, luminescence activities of GL4-derived and OKI-derived permutated luciferases are shown in terms of relative values with the activity of GL4 being 1. The vertical axis in FIG. 3 represents relative luminescence level.
# The pRSET vector containing the heterologous permutated luciferase gene was transformed into JM109(DE3) strain of E. coli and cultured overnight at 37° C. in LB medium. […] Luminescence level for 10 sec was then measured using a luminometer (Luminescencer-JNR II, ATTO). […]
molecule,measurement,setting,value
"NCCc1c[nH]c2ccc(O)cc12 [5HT, Serotonin]",luminescence intensity response of indicator-expressing cells to 5HT stimulation,[1],"cells that exhibited oscillation, as well as cells that exhibited a transient reduction in luminescence intensity"
"Nc1ncnc2c1ncn2[C@@H]1O[C@H](COP(=O)(O)OP(=O)(O)OP(=O)(O)O)[C@@H](O)[C@H]1O [ATP, adenosine tri phosphate]",change in luminescence intensity of luminescent calcium indicator upon ATP stimulation,HEK293 cells [2],reductions in luminescence intensity
same,time course of luminescence intensity change caused by ATP stimulation,HEK293 cells [3],transient
same,luminescence intensity of indicator-expressing cells after ATP stimulation (single-cell imaging),"HEK293 cells [3]; luciferin 2 mM, exposure 5 sec",decreased levels of luminescence intensity
B1,"luminescence activity (relative luminescence level, GL4 being 1)",E. coli (JM109 (DE3)),high levels of luminescence activity
